Test results taken from ChEMBL document CHEMBL1201862, “PubChem BioAssay data set” (2004).
Active and inactive are the calls of the source.

Experiments:
[1] = A Cell Based Secondary Assay To Explore Cytotoxicity of Compounds that Sensitize Mycobacterium Tuberculosis to Beta-Lactam Antibiotics.; type: functional
CHO-K1 = assay: (§1) Counterscreen for antagonists of the orexin 1 receptor (OX1R; HCRTR1): Homogeneous time resolved fluorescence (HTRF)-based cell-based dose response assay to identify antagonists of the parental CHO-K1 cell line. [Related pubchem assays (depositor defined):AID434989, AID435008, AID463079, AID485270, AID492963, AID492964, AID492965, AID493232, AID504699, AID504701]; type: functional; conditions: Cricetulus griseus
[2] = as §1, with “Fluorescence-based” for “Homogeneous time resolved fluorescence (HTRF)-based”, “cell-based high throughput” for “cell-based”, “CHO” for “CHO-K1”; type: functional
[3] = molecular target: T1, Orexin/Hypocretin receptor type 1 (Homo sapiens, UniProt O43613); assay: Homogeneous Time Resolved Fluorescence (HTRF)-based cell-based high throughput dose response assay for antagonists of the orexin 1 receptor (OX1R; HCRTR1). [Related pubchem assays (depositor defined):AID434989, AID435008, AID463079, AID485270, AID492963, AID492964, AID492965, AID493232, AID504717, AID504718]; type: functional
T1 sequence (O43613 whole entry): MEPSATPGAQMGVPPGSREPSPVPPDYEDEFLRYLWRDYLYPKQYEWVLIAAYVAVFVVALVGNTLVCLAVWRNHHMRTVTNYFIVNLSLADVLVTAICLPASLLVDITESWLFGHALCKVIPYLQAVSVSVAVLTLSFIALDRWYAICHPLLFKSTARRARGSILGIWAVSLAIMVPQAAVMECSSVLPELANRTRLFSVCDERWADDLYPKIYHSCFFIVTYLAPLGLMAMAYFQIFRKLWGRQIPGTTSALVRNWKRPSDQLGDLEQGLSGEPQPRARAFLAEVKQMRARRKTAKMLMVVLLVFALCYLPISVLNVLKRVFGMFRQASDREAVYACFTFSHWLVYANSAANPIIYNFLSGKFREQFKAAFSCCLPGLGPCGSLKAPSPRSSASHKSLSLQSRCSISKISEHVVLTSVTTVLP

[4] = molecular target: T1, Orexin/Hypocretin receptor type 1; assay: Fluorescence-based cell-based high throughput dose response assay for antagonists of the orexin 1 receptor (OX1R; HCRTR1). [Related pubchem assays (depositor defined):AID434989, AID435008, AID463079, AID485270, AID492963, AID492964, AID492965, AID493232, AID504717, AID504718]; type: functional
Orexin receptor type 2 [5] = molecular target: T2, Orexin receptor type 2 (Homo sapiens, UniProt O43614); assay: Counterscreen assay for antagonists of the orexin 1 receptor (OX1R; HCRTR1): Fluorescence-based cell-based dose response assay for antagonists of the orexin 2 receptor (OX2R; HCRTR2), run by assay provider.; type: functional
T2 sequence (O43614 whole entry): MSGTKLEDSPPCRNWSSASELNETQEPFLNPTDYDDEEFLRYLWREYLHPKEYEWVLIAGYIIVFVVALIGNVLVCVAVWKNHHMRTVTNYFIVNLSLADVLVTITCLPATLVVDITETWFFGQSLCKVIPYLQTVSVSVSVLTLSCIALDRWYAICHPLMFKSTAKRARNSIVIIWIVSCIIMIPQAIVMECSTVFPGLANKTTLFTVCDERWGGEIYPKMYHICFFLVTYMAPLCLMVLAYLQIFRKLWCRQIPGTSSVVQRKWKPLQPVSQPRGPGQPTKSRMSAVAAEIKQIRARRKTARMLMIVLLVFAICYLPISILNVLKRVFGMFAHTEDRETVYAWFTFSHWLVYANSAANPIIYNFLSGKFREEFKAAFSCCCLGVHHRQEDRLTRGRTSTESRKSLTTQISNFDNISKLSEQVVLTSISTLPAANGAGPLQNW

Orexin receptor type 2 [6] = molecular target: T2, Orexin receptor type 2; assay: Counterscreen assay for antagonists of the orexin 1 receptor (OX1R; HCRTR1): Homogeneous Time Resolved Fluorescence (HTRF)-based cell-based dose response assay for antagonists of the orexin 2 receptor (OX2R; HCRTR2), run by assay provider.; type: functional
[7] = molecular target: T3, High affinity choline transporter 1 (Homo sapiens, UniProt Q9GZV3); assay: human choline transporter blockers, potency – cell-based, 5-point CRC, membrane potential dye, dose response (AID 504840); type: functional
T3 sequence (Q9GZV3 whole entry): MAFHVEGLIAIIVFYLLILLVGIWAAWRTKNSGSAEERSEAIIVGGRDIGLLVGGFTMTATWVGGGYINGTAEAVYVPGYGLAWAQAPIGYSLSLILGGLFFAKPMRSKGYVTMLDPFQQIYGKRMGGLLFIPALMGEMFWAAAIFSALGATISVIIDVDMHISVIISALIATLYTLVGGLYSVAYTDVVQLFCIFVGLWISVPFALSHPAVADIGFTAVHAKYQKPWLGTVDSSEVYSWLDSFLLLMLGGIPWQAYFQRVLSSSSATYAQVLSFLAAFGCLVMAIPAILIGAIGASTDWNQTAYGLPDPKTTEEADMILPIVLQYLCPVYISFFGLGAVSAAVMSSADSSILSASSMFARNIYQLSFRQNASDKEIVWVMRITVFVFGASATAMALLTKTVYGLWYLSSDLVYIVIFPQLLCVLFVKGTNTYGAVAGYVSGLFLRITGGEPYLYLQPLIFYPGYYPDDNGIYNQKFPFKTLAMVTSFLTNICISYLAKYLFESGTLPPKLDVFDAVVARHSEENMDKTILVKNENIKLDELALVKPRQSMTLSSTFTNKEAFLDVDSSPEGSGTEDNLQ

[8] = molecular target: T3, High affinity choline transporter 1; assay: human choline transporter blockers, potency – cell-based, 10-point CRC, membrane potential dye, dose response (AID 588401); type: functional;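 further: membrane potential dye fluorescence of choline-evoked depolarization via CHT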
[9] = molecular target: T4, Corticotropin-releasing factor receptor 2/Corticotropin-releasing factor-binding protein (Homo sapiens, UniProt P24387+Q13324); assay: Dose Response confirmation of uHTS hits for small molecule antagonists of the CRF-binding protein and CRF-R2 receptor complex.; type: functional; conditions: read-out: IC50_Mean
T4 sequence (Q13324 whole entry): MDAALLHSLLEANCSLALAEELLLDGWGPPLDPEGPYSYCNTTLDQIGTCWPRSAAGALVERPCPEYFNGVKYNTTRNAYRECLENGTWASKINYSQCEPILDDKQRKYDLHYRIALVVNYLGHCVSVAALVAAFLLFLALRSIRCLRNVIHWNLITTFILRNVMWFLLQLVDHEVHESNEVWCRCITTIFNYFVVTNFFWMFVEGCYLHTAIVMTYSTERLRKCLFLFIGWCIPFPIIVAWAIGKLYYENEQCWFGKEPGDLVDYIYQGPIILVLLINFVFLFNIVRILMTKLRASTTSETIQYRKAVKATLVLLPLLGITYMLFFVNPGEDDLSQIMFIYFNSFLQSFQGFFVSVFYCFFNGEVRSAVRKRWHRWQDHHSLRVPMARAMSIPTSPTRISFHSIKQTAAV
T4 sequence (P24387 whole entry): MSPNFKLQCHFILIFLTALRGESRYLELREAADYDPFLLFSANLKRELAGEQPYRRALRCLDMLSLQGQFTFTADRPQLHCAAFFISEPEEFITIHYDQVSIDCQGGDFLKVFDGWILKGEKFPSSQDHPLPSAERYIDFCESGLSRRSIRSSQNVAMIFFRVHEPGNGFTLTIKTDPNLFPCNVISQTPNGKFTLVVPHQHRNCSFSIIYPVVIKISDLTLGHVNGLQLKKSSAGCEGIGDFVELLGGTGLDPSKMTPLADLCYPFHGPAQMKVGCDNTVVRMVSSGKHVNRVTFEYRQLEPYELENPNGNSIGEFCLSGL

[10] = molecular target: T4, Corticotropin-releasing factor receptor 2/Corticotropin-releasing factor-binding protein; assay: activators of CRF receptor 2 with binding protein – uHTS hits, confirmation (AID 602473); type: functional; conditions: read-out: EC50_Mean
[11] = blockers of CRF-binding protein–CRF-R2 complex – cell-based, uHTS hits, 384-well, dose response (AID 651639); type: functional, Homo sapiens; conditions: read-out: IC50_Mean
[12] = viability loss in THP-1 monocytes – THP-1 cells, cytotoxicity control for Vif-APOBEC3G degradation inhibitor project, dose response (AID 1117359); type: functional; conditions: THP-1
[13] = molecular target: Heat shock protein HSP 90-alpha (Homo sapiens, UniProt P07900); type: functional, organism-based
[14] = molecular target: Mitochondrial peptide methionine sulfoxide reductase (Bos taurus, UniProt P54149); assay: Absorbance-based biochemical high throughput dose response assay for activators of Methionine sulfoxide reductase A (MsrA).; type: functional
Chain of Mitochondrial peptide methionine sulfoxide reductase (P54149 whole entry): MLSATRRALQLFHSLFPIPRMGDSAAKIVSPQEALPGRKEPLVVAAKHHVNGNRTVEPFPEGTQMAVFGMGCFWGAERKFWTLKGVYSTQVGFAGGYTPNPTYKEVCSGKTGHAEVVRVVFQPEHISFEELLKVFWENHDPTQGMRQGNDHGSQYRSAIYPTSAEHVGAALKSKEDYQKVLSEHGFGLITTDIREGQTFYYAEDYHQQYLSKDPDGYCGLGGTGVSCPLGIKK

Caspase-6 = molecular target: T5, Caspase-6 (Homo sapiens, UniProt P55212); assay: inhibition of CASP6 peptide cleavage – biochemical, VEID-R110 fluorescence, cherry-pick, dose response (AID 720632)
T5 sequence (P55212 whole entry): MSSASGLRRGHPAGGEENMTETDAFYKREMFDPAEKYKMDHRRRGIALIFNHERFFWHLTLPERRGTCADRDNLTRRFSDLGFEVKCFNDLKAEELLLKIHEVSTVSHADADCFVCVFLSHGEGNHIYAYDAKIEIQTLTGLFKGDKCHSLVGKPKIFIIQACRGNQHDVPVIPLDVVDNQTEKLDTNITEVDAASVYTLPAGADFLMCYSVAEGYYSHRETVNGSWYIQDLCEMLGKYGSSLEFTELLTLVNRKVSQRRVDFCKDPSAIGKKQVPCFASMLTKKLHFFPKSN

Caspase-7 = molecular target: T6, Caspase-7 (Homo sapiens, UniProt P55210); assay: caspase-7 enzyme inhibition, selectivity check – biochemical, DEVD-R110 fluorescence, cherry-pick, selectivity assay for caspase-6 inhibitor project, dose response (AID 743295); type: functional
T6 sequence (P55210 whole entry): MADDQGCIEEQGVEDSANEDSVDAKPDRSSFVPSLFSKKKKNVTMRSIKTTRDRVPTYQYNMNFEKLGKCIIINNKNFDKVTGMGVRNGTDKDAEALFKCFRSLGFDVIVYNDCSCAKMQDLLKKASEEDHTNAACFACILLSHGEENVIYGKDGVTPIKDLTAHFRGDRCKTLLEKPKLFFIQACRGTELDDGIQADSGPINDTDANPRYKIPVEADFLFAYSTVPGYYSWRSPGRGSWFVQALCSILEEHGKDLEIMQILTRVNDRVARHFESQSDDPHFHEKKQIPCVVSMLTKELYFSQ

Caspase-8 = Caspase-8 (Homo sapiens, UniProt Q14790); assay: inhibitors of purified CASP8 protease – biochemical, Z-IETD-R110 fluorescence, cherry-picked samples, selectivity assay for caspase-6 inhibitor project, dose response (AID 743294)
Chain of Caspase-8 (Q14790 217-374 limits assumed): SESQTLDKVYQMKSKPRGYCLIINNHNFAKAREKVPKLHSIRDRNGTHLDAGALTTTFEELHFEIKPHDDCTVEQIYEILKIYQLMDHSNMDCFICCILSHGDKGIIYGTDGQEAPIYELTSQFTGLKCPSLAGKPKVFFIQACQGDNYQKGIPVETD
Chain of Caspase-8 (Q14790 385-479 limits assumed): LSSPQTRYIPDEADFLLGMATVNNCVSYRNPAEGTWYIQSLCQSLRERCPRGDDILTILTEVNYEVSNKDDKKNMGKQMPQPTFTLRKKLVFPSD

[15] = molecular target: ATP-dependent translocase ABCB1 (Homo sapiens, UniProt P08183); assay: inhibition of P-gp mediated JC-1 efflux – Jurkat-DNR cells, flow cytometry, dose response (AID 1689); type: functional
Chain of ATP-dependent translocase ABCB1 (P08183 whole entry): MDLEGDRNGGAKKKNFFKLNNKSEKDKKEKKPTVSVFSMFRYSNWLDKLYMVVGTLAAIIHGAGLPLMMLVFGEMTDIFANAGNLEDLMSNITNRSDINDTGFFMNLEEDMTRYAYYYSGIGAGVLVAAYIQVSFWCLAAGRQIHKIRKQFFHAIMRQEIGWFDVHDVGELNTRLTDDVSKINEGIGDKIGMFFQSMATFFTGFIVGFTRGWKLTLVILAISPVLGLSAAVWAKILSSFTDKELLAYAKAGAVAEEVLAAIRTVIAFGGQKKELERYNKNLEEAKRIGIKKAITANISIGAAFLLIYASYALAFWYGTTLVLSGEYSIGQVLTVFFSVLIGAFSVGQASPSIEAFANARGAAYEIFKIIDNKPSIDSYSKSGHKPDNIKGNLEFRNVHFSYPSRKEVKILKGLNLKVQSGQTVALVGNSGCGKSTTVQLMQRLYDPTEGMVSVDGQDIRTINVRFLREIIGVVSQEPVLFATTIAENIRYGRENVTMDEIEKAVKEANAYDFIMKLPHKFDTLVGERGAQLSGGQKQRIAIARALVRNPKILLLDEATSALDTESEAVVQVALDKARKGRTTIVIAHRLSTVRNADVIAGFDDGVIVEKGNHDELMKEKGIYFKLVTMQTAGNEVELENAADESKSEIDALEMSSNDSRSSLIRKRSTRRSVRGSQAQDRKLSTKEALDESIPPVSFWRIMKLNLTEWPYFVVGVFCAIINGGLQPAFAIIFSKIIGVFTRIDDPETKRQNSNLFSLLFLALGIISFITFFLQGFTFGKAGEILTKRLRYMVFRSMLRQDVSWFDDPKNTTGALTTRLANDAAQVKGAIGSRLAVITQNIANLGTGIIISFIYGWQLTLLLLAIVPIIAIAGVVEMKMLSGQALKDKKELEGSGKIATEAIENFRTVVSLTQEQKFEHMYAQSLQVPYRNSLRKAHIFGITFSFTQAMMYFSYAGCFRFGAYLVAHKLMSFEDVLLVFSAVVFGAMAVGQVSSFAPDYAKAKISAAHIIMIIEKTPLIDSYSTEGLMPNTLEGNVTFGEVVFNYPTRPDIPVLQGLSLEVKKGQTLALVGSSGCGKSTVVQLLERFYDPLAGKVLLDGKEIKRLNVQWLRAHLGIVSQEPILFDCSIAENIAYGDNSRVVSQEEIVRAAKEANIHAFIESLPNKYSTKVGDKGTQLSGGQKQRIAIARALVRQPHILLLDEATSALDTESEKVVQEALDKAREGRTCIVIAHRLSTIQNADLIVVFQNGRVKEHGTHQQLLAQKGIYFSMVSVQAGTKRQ

## O=C(Nc1cccc(S(=O)(=O)NCc2ccco2)c1)c1cc(-c2ccc(F)cc2)nc2ccccc12
[1]
  CC50: 2.38 µM (active)
CHO-K1
  IC50: > 66.2 µM (inactive)
[2]
  IC50: > 49.8 µM (inactive)
[3]
  IC50: 6.13 µM (active)
[4]
  IC50: 17.2 µM (inactive)
Orexin receptor type 2 [5]
  IC50: 9.9 µM (active)
Orexin receptor type 2 [6]
  IC50: > 50 µM (inactive)

## CC(c1ccco1)N(C(=O)c1ccccc1NS(=O)(=O)c1ccc(Cl)c([N+](=O)[O-])c1)c1ccccn1 (stereo not given)
[7]
  IC50: 0.661 µM (inconclusive)
[8]
  IC50: 4.01 µM (active)
[9]
  IC50: 20.3 µM (active)
[10]
  EC50: > 53 µM (inactive)
[11]
  IC50: 18 µM (active)

## Cc1c2ccccc2nc2c(F)c(N(C)C)c(F)c(F)c12
CHO-K1
  IC50: > 66.2 µM (inactive)
[2]
  IC50: 19.7 µM (inactive)
[3]
  IC50: 1.01 µM (active)
[4]
  IC50: 2.19 µM (active)
Orexin receptor type 2 [5]
  IC50: 32.2 µM (inactive)
Orexin receptor type 2 [6]
  IC50: > 50 µM (inactive)
[12]
  CC50: > 40 µM (active)

## CC(C)(C)c1ccc(NC(=O)COC(=O)c2ccc([N+](=O)[O-])s2)cc1
[13]
  AC50: 2.85 µM (active)
[14]
  EC50: 54.7 µM (inactive)
Caspase-6
  AC50: 3.59 µM (active)
Caspase-7
  AC50: 21.7 µM (active)
Caspase-8
  AC50: 37.4 µM (active)

## Cc1nc2cc(-c3cccc(F)c3)nn2c(N2CCN(C(=O)c3ccco3)CC2)c1C
[15]
  EC50: 14.6 µM (inactive)
